The test system of data set [1] is A549. The data set can be described thus: Antiproliferative activity against human A549 cells assessed as growth inhibition after 24 to 72 hrs by MTS assay. The class given is functional. Background: Formazan colour is commonly taken as a measure of viable cells.
Data set [2] concerns MCF7. Put plainly: Antiproliferative activity against human MCF7 cells assessed as growth inhibition after 24 to 72 hrs by MTS assay. The class given is functional.
Data set [3] has as its system P388. The data set can be described thus: Antiproliferative activity against mouse P388 cells assessed as growth inhibition after 24 to 72 hrs by MTS assay. The class given is functional.
Data set [4] relates to HCT-116. The data set can be described thus: Antiproliferative activity against human HCT116 cells assessed as growth inhibition after 24 to 72 hrs by MTS assay. The class given is functional.
Data set [5] in a line: Antiproliferative activity against NHLF assessed as growth inhibition after 24 to 72 hrs by MTS assay. Conditions: human, NHLF cells.
A short description of data set [6]: Antiproliferative activity against NHDF assessed as growth inhibition after 24 to 72 hrs by MTS assay. The class given is cell-based. To be noted: human, NHDF cells.
Data set [7] in a line: Antiproliferative activity against HMEC assessed as growth inhibition after 24 to 72 hrs by MTS assay. The class given is cell-based. To be noted: human, HMEC cells.
A short description of data set [8]: Antiproliferative activity against HUVEC assessed as growth inhibition after 24 to 72 hrs by MTS assay. The class given is cell-based. To be noted: human, HUVEC cells.
Data set [9] can be described thus: Toxicity in mouse assessed as tolerated dose compound treated once daily for 5 consecutive days. The class given is organism-based. To be noted: in vivo.
The subject of data set [10] is Mus musculus. Put plainly: Toxicity in mouse assessed as death at >= 1.5 mg/kg, iv compound treated once daily for 5 consecutive days. The class given is organism-based. Details: dose 1.5 mg/kg, route intravenous. To be noted: in vivo.
Data set [11] relates to Mus musculus. Put plainly: Toxicity in mouse assessed as death at 0.03 to 3 mg/kg, iv once every 4 days for 3 injections. The class given is organism-based. Details: dose 0.03-3 mg/kg, route intravenous. To be noted: in vivo, 96 h.
Data set [12] is described as follows: Plasma concentration in mouse at 6 mg/kg, iv after 30 mins. The class given is ADME, organism-based. Details: dose 6 mg/kg, route intravenous.
Data set [13] concerns PC-3. The data set can be described thus: Antitumor activity against human PC3 cells xenografted in NCr-nu/nu mouse assessed as tumor weight reduction measured on day 22 at 1 mg/kg, iv once daily for 5 injections. To be noted: PC-3, 528 h. The class given is functional. Background: In xenograft studies the graft and the host belong to different species.
Data set [14] deals with Mus musculus. The data set can be described thus: Toxicity in mouse assessed as body weight loss at 1 mg/kg, iv once every 4 days for 3 injections. The class given is organism-based. Details: dose 1 mg/kg, route intravenous. Conditions: in vivo, 96 h.
Data set [15] deals with Mus musculus. Put plainly: Toxicity in mouse assessed as death at 0.5 mg/kg, iv led to the euthanization of mouse on day 9. Details: dose 0.5 mg/kg, route intravenous. To be noted: in vivo. The class given is organism-based, NCr.
For data set [16], the system named is Mus musculus. Put plainly: Toxicity in mouse assessed as body weight loss at 0.5 mg/kg, iv led to the euthanization of mouse on day 9. The class given is organism-based. Details: dose 0.5 mg/kg, route intravenous. Conditions: in vivo.
In data set [17] the test system is HCT-116. Put plainly: Antitumor activity against human HCT116 cells xenografted in NCr-nu/nu mouse assessed as tumor weight reduction at 1.5 to 3 mg/kg, iv once every 4 days for 3 injections after 16 days of tumor cell transplantation. The class given is functional, organism-based.
Data set [18] concerns Mus musculus. The data set can be described thus: Toxicity in mouse assessed as body weight loss at 3 mg/kg, iv once every 4 days for 3 injections. Details: dose 3 mg/kg, route intravenous. Conditions: in vivo, 96 h. The class given is organism-based.
The test system of data set [19] is HCT-116. The data set can be described thus: Antitumor activity against human HCT116 cells xenografted in NCr-nu/nu mouse assessed as tumor inhibition rate measured on day 41 at 6 mg/kg, iv once every 4 days for 3 injections after 16 days of tumor cell transplantation. The class given is functional.
A short description of data set [20]: Half life in mouse serum. The class given is ADME.
The subject of data set [21] is HCT-116. Put plainly: Antitumor activity against human HCT116 cells xenografted in NCr-nu/nu mouse assessed as tumor inhibition rate measured on day 41and 44 at 15 mg/kg, iv once daily for 5 injections after 16 days of tumor cell transplantation. The class given is functional. Conditions: HCT-116, 384 h.
Data set [22] can be described thus: Therapeutic index, ratio of GI50 for human HCT116 cells to GI50 for HUVEC. The class given is cell-based, HCT-116. To be noted: HCT116 cells and HUVEC cells, read-out: RatioGI50.
For data set [23], the system named is HCT-116. The data set can be described thus: Antitumor activity against human HCT116 cells xenografted in NCr-nu/nu mouse assessed as tumor weight reduction at 6 mg/kg, iv once every 4 days for 3 injections after 16 days of tumor cell transplantation. The class given is functional.
Data set [24] can be described thus: Therapeutic index, ratio of GI50 for human HCT116 cells to GI50 for HMEC. The class given is cell-based, HCT-116. Conditions: HCT116 cells and HMEC cells, read-out: RatioGI50.
Data set [25] in a line: Therapeutic index, ratio of GI50 for human HCT116 cells to GI50 for NHLF. Conditions: HCT116 cells and NHLF cells, read-out: RatioGI50. The class given is cell-based, HCT-116.
Data set [26] can be described thus: Therapeutic index, ratio of GI50 for human HCT116 cells to GI50 for NHDF. The class given is cell-based, HCT-116. To be noted: HCT116 cells and NHDF cells, read-out: RatioGI50.
The subject of data set [27] is Mus musculus. The data set can be described thus: Toxicity in mouse assessed as body weight loss at 0.03 to 3 mg/kg, iv once every 4 days for 3 injections. The class given is organism-based. Details: dose 0.03-3 mg/kg, route intravenous. Conditions: in vivo, 96 h.
The subject of data set [28] is MDA-MB-231. The data set can be described thus: Antiproliferative activity against human MDA-MB-231 cells assessed as growth inhibition after 24 to 72 hrs by MTS assay. The class given is functional.
Data set [29] is described as follows: Plasma concentration in mouse at 6 mg/kg, iv upto 4 hrs. The class given is ADME, organism-based. Details: dose 6 mg/kg, route intravenous.

Molecules are shown by their SMILES. The source made the active and inactive calls. The calls are words filed in the database; no cut-off is given here. Where only a bound is given, the exact number is not on record here.

Usually GI50 stands for the concentration that inhibits growth by half. In the case of `CC(=O)O[C@@H](C)/C=C\C(=O)N[C@@H]1C[C@H](C)[C@H](C/C=C(C)/C=C/[C@H]2O[C@](C)(O)C[C@@]3(CO3)[C@@H]2O)O[C@@H]1C`, the GI50 in [1], in data set [2], in data set [3] and in [4] was 1 nM in each case.
For the compound `COc1cccc2c1C(=O)c1c(O)c3c(c(O)c1C2=O)C[C@@](O)(C(=O)CO)C[C@@H]3O[C@H]1C[C@H](N)[C@H](O)[C@H](C)O1` [DOXORUBICIN], the GI50 in [5] came to 223 nM; in data set [6] it was 462 nM; in data set [7], 276 nM; in [8] it was 109 nM; in data set [4], 70 nM.
The MTD is the highest dose tested that stayed within the study's limit of toxicity. As a reminder, the inhibition in vivo is the relative decrease from the control value, in per cent. In general, half-life refers to the time in which the quantity being followed falls by half. A low value points to rapid decline. As for `CC(/C=C/[C@H]1OC(C)(C)C[C@@]2(CO2)[C@@H]1O)=C\C[C@@H]1O[C@H](C)[C@H](NC(=O)/C=C\[C@H](C)OC(=O)N2CCOCC2)C[C@@H]1C`, in data set [9], the maximum tolerated dose (MTD) at 5 days came to 0.5 mg/kg. Further, the Activity result in data set [10] is on record as “Toxic”; in data set [11], “Non-toxic”; in data set [14], 10%; in data set [15] it was “Toxic”; in data set [16], 6%; in [18] it was 11%. This compound also had a concentration at 0.5 h in [12] of less than 10 ng/mL. In addition, the inhibition in vivo at 1 mg/kg in data set [13] is 26%. For the same compound, the outcome in data set [17] was inactive. Moreover, in data set [19], the inhibition in vivo at 6 mg/kg worked out at 41%. Also, the half-life in data set [20] is 13 h.
On to `CC(=O)O[C@H]1C(=O)[C@@]2(C)[C@H]([C@H](OC(=O)c3ccccc3)[C@]3(O)C[C@H](OC(=O)[C@H](O)[C@@H](NC(=O)c4ccccc4)c4ccccc4)C(C)=C1C3(C)C)[C@]1(OC(C)=O)CO[C@@H]1C[C@@H]2O` [PACLITAXEL], for which the inhibition in vivo at 15 mg/kg in data set [21] came out at 81%.
For `CC(=O)O[C@@H](C)/C=C\C(=O)N[C@@H]1C[C@H](C)[C@H](C/C=C(C)/C=C/[C@H]2OC(C)(C)C[C@@]3(CO3)[C@@H]2O)O[C@@H]1C`, the selectivity ratio worked out at 1 in [22], 1.6 in [24], 2.7 in data set [25] and 6 in [26]. Besides, the 50% growth inhibitory concentration (GI50) in [5] amounted to 0.91 nM; in data set [6], 0.44 nM; in data set [7], 0.11 nM; in data set [2], 0.02 nM; in data set [8], 0.06 nM; in [4], 0.07 nM. In addition, in data set [28], the GI50 was found to be 0.07 nM. Moreover, the Activity entry in data set [11] and in data set [27] was “Non-toxic” in each case. The inhibition in vivo at 6 mg/kg in data set [23] was determined as 24%. Besides, the outcome in data set [17] was inactive. In data set [20], this compound gave a half-life of 2 h.
With `CO[C@@H]1[C@@H](/C=C/C(C)=C/C[C@@H]2O[C@H](C)[C@H](NC(=O)/C=C\[C@H](C)OC(=O)N3CCOCC3)C[C@@H]2C)OC(C)(C)C[C@@]12CO2`, the selectivity ratio in data set [22] was 1.5; in data set [24] it was 3.5; in data set [25], 4.6; in data set [26] it was 15. Moreover, the GI50 in data set [5] was determined as 12 nM; in [6], 39 nM; in data set [7], 9 nM; in data set [2] it was 0.4 nM; in data set [8], 4 nM; in data set [4], 1.4 nM. For the same compound, the GI50 in [28] came to 1.1 nM. The compound also showed a concentration at 4 h in data set [29] of less than 10 ng/mL.

The record behind these values is ChEMBL document CHEMBL3217663, “Evaluation of FR901464 analogues in vitro and in vivo” (Medchemcomm, 2011).
